Experimental data reported in patent publication US7550158B2, “Controlled release by extrusion of solid amorphous dispersions of drugs” (Bend Research, Inc., priority 1999, dated 2009).
Values after ≈ are worked out from the molar mass of the structure shown. Blank lines part the entries; values can stand above or below the molecule they belong to.

Key:
Assay type in all cases: physicochemical
[1] = Dissolution in MFD solution (Example 8, sertraline); settings: 40 ml MFD solution
Method: For a comparative dissolution study, Control H, consisting of 111.4 mg of the crystalline drug, was used. The dissolution of drug was studied by placing the bilayer tablet and Control H each in 40 ml of MFD solution.

[2] = Dissolution in phosphate buffered saline (PBS) solution (Example 3); settings: 35 ml PBS solution, Drug 2
Method: For a comparative dissolution study, Control E, consisting of 35 mg of crystalline Drug 2 was prepared. The dissolution of drug was studied by placing two of the trilayer tablets and Control E each in 35 ml of a phosphate buffered saline (PBS) solution composed of 6 mm KH2PO4, 5 mM NaOH, 60 mM KCl and 30 mM NaCl. The data for the trilayer tablet is the average of the values for the two tablets tested.

[3] = Dissolution in MFD solution (Example 6); settings: 50 ml MFD solution, Drug 1
Source text: 1. The data for the tri-layer tablet is the average of the values for the two tablets tested.

[4] = Water solubility of the drug
[5] = Dissolution in phosphate-buffered solution pH 7.2 simulating intestinal environment (Example 7); settings: 50 ml phosphate-buffered solution pH 7.2, Drug 2
Method: For a comparative dissolution study, Control G, consisting of 100 mg of crystalline Drug 2 was prepared. The dissolution of drug was studied by placing one each of the bi-layer tablet and Control G preparation containing an equal amount of Drug 2 in 50 ml of the phosphate-buffered solution of Example 3 (pH 7.2, osmotic pressure 5.3 atm) to simulate an intestinal environment of use.

MDC (maximum drug concentration) [1]: 401 µg/mL | AUC ([1]; time 0 hr): 0 µg·min/mL | [Drug] drug concentration ([1]; time 0 hr): 0 µg/mL | [Drug] drug concentration ([1]; time 0.2 hr): 278 µg/mL | [Drug] drug concentration ([1]; time 0.3 hr): 401 µg/mL | [Drug] drug concentration ([1]; time 0.7 hr): 341 µg/mL | [Drug] drug concentration ([1]; time 1.5 hr): 217 µg/mL | [Drug] drug concentration ([1]; time 2 hr): 188 µg/mL | [Drug] drug concentration ([1]; time 3 hr): 168 µg/mL | [Drug] drug concentration ([1]; time 4 hr): 152 µg/mL | [Drug] drug concentration ([1]; time 6 hr): 160 µg/mL | [Drug] drug concentration ([1]; time 10 hr): 137 µg/mL | [Drug] drug concentration ([1]; time 14 hr): 135 µg/mL | [Drug] drug concentration ([1]; time 24 hr): 191 µg/mL
Compound: CN[C@H]1CC[C@@H](c2ccc(Cl)c(Cl)c2)c2ccccc21 [Control H, sertraline]

Compound: O=C(N[C@@H](Cc1ccccc1)[C@@H](O)C(=O)N1C[C@@H](O)[C@@H](O)C1)c1cc2cc(Cl)ccc2[nH]1 [Control E]
MDC (maximum drug concentration) [2]: 171 µg/mL | [Drug] drug concentration ([2]; time 0.3 hrs): 99 µg/mL | [Drug] drug concentration ([2]; time 1.5 hrs): 148 µg/mL | [Drug] drug concentration ([2]; time 2.0 hrs): 165 µg/mL | [Drug] drug concentration ([2]; time 3.0 hrs): 137 µg/mL | [Drug] drug concentration ([2]; time 4.0 hrs): 142 µg/mL | [Drug] drug concentration ([2]; time 12.0 hrs): 157 µg/mL | [Drug] drug concentration ([2]; time 20.0 hrs): 171 µg/mL

Compound: CON(C)C(=O)C(O)[C@H](Cc1ccccc1)NC(=O)c1cc2cc(Cl)ccc2[nH]1 (stereo in doubt) [Control F, [R-(R*,S*)]-5-chloro-N-[2-hydroxy-3-[methoxymethylamino)-3-1-(phenylmethyl)propyl]propyl]-1H-indole-2-carboxamide]
MDC (maximum drug concentration) [3]: 16 µg/mL | [Drug] drug concentration ([3]; time 0 hr): 0 µg/mL | [Drug] drug concentration ([3]; time 2 hr): 13 µg/mL | [Drug] drug concentration ([3]; time 4 hr): 16 µg/mL | [Drug] drug concentration ([3]; time 8 hr): 13 µg/mL | [Drug] drug concentration ([3]; time 12 hr): 15 µg/mL | [Drug] drug concentration ([3]; time 20 hr): 12 µg/mL | [Drug] drug concentration ([3]; time 24 hr): 11 µg/mL

Compound: CON(C)C(=O)C(O)[C@H](Cc1ccccc1)NC(=O)c1cc2cc(Cl)ccc2[nH]1 (stereo in doubt) [Drug 1, [R-(R*,S*)]-5-chloro-N-[2-hydroxy-3-[methoxymethylamino)-3-1-(phenylmethyl)propyl]propyl]-1H-indole-2-carboxamide]
water solubility [4]: 1 µg/mL (≈ 2.4 µM)

Compound: O=C(N[C@@H](Cc1ccccc1)[C@@H](O)C(=O)N1C[C@@H](O)[C@@H](O)C1)c1cc2cc(Cl)ccc2[nH]1 [Control G]
MDC (maximum drug concentration) [5]: 77 µg/mL | [Drug] drug concentration ([5]; time 0 hr): 0 µg/mL | [Drug] drug concentration ([5]; time 1 hr): 59 µg/mL | [Drug] drug concentration ([5]; time 2 hr): 72 µg/mL | [Drug] drug concentration ([5]; time 4 hr): 72 µg/mL | [Drug] drug concentration ([5]; time 8 hr): 77 µg/mL | [Drug] drug concentration ([5]; time 12 hr): 71 µg/mL | [Drug] drug concentration ([5]; time 18 hr): 71 µg/mL | [Drug] drug concentration ([5]; time 24 hr): 75 µg/mL
